According to the supplement of paper PMC11208160:
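Also: IS621 bridge recombinase in Escherichia coli cells against a fixed T5 target plasmid.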

Experiment: recombinant UMI read abundance after kanamycin selection (control-corrected) (log10(CPM+1)); higher = more efficient recombination; extreme values may be limits of the assay; sequences stand for … in AGTGCAGAGAAAATCGGCCAGTTTTCTCTGCCTGCAGTCCGCATGCCGTGGGACCCCTTGGGTTCTAACCTGTTGCCTAGATTTATGCAGCGGACTGCCTTTCTCCCAAAGTGATAAACCGG…AGGTTGGTTTCACT; site = the 11-nt donor
Procedure, shortened: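 In Escherichia coli, a pool of donor and donor-binding-loop pairs, each with a 12-nt UMI, was tested for the IS621 bridge recombinase. Plating was on IPTG (0.07 mM) plus kanamycin, or without selection, in two replicates. Recombinant UMIs were amplified by PCR across the donor–target junction and sequenced, and counts were reported as log10(CPM+1) after averaging and control-derived scaling.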
For “TTTGCGACATGGACCGGTTTTCCCGGTAATCCGTATTTGCT (site TTTGCGGCTAG)”, the “recombinant UMI read abundance (log10)” value was 0.145.
With “GTTCAAGCATGGACCGGTTTTCCCGGTAATCCGTATTTGCA (site GTTCAAGCTTG)” the “recombinant UMI read abundance (log10)” value was 1.62.
With “GCAGGTACATGGACCGGTTTTCCCGGTAATCCGTATTTGAC (site GTAGGTACTGT)” the “recombinant UMI read abundance (log10)” value was 2.1.
In the case of “GTGGAAACATGGACCGGTTTTCCCGGTAATCCGTATTTGCA (site GTGGAAACTTG)”, the “recombinant UMI read abundance (log10)” value is reported as 2.37.
With “ACCTAGTCATGGACCGGTTTTCCCGGTAATCCGTATTTGGG (site ACCTAGACTCC)” the “recombinant UMI read abundance (log10)” value was 0.
With “TCCAATTCATGGACCGGTTTTCCCGGTAATCCGTATTTGCC (site TCCAATTCTGC)” the “recombinant UMI read abundance (log10)” value was 0.
In the case of “ACACATCCATGGACCGGTTTTCCCGGTAATCCGTATTTGAC (site ACAGATCCTGT)”, the “recombinant UMI read abundance (log10)” value is reported as 0.
In the case of “CAATGCCCATGGACCGGTTTTCCCGGTAATCCGTATTTGAA (site CAATGCCCTTT)”, the “recombinant UMI read abundance (log10)” value is reported as 1.
For “TATTTGGCATGGACCGGTTTTCCCGGTAATCCGTATTTGTG (site TATTTGGCTCG)”, the “recombinant UMI read abundance (log10)” value was 0.00904.
With “TCATACTCATGGACCGGTTTTCCCGGTAATCCGTATTTGCA (site TCATAATCTTG)” the “recombinant UMI read abundance (log10)” value was 0.464.
With “CCAGGTGCATGGACCGGTTTTCCCGGTAATCCGTATTTGTT (site CCAGGTGCTAG)” the “recombinant UMI read abundance (log10)” value was 1.42.
With “ACAGTATCATGGACCGGTTTTCCCGGTAATCCGTATTTGTA (site ACAGTATCTTG)” the “recombinant UMI read abundance (log10)” value was 2.51.
With “CAGTACACATGGACCGGTTTTCCCGGTAATCCGTATTTGAC (site CAGTACACTGT)” the “recombinant UMI read abundance (log10)” value was 3.63.
With “GGGGCACCATGGACCGGTTTTCCCGGTAATCCGTATTTGCA (site GGGGCCCCTTG)” the “recombinant UMI read abundance (log10)” value was 0.0249.
With “CCGGGTGCATGGACCGGTTTTCCCGGTAATCCGTATTTGAT (site CCCGGTGCTAT)” the “recombinant UMI read abundance (log10)” value was 0.797.
For “GTATGCACATGGACCGGTTTTCCCGGTAATCCGTATTTGTA (site GTGTGCACTTA)”, the “recombinant UMI read abundance (log10)” value was 0.384.
With “GACGAACCATGGACCGGTTTTCCCGGTAATCCGTATTTGAG (site GACGAACCTCT)” the “recombinant UMI read abundance (log10)” value was 0.
In the case of “TCCATATCATGGACCGGTTTTCCCGGTAATCCGTATTTGTC (site ACCATATCTGA)”, the “recombinant UMI read abundance (log10)” value is reported as 0.
With “CTAGGTACATGGACCGGTTTTCCCGGTAATCCGTATTTGAC (site GTAGGTACTGT)” the “recombinant UMI read abundance (log10)” value was 0.
In the case of “TAGGAATCATGGACCGGTTTTCCCGGTAATCCGTATTTGCG (site TAGGACTCTCG)”, the “recombinant UMI read abundance (log10)” value is reported as 0.892.
In the case of “GGGAAGCCATGGACCGGTTTTCCCGGTAATCCGTATTTGTT (site GGGAAGCCTAA)”, the “recombinant UMI read abundance (log10)” value is reported as 0.0967.
In the case of “GGGAATCCATGGACCGGTTTTCCCGGTAATCCGTATTTGTT (site CGGAATCCTAA)”, the “recombinant UMI read abundance (log10)” value is reported as 0.
With “AGAAAGGCATGGACCGGTTTTCCCGGTAATCCGTATTTGCT (site AGAGAGGCTAG)” the “recombinant UMI read abundance (log10)” value was 0.846.
For “GCTCGCCCATGGACCGGTTTTCCCGGTAATCCGTATTTGAT (site GCTAGCCCTAT)”, the “recombinant UMI read abundance (log10)” value was 0.0115.
In the case of “ATGTACTCATGGACCGGTTTTCCCGGTAATCCGTATTTGCA (site ATGTACTCTTG)”, the “recombinant UMI read abundance (log10)” value is reported as 2.96.
In the case of “CCTTGTGCATGGACCGGTTTTCCCGGTAATCCGTATTTGGA (site CCTTGTGCTTC)”, the “recombinant UMI read abundance (log10)” value is reported as 0.0149.
With “CCTATTACATGGACCGGTTTTCCCGGTAATCCGTATTTGGC (site CCTACTACTGC)” the “recombinant UMI read abundance (log10)” value was 0.
For “CCGTTAGCATGGACCGGTTTTCCCGGTAATCCGTATTTGAG (site CCGTTAGCTCC)”, the “recombinant UMI read abundance (log10)” value was 0.006.
For “ACACAGCCATGGACCGGTTTTCCCGGTAATCCGTATTTGTC (site ACACAGCCTGA)”, the “recombinant UMI read abundance (log10)” value was 0.
In the case of “GCCTTATCATGGACCGGTTTTCCCGGTAATCCGTATTTGAA (site GCCTTATCTTT)”, the “recombinant UMI read abundance (log10)” value is reported as 0.731.
With “GAGGATTCATGGACCGGTTTTCCCGGTAATCCGTATTTGTT (site GAGGATTCTAA)” the “recombinant UMI read abundance (log10)” value was 2.83.
With “CAAGTCACATGGACCGGTTTTCCCGGTAATCCGTATTTGAG (site CAAGTCACTCA)” the “recombinant UMI read abundance (log10)” value was 1.48.
With “GATTATCCATGGACCGGTTTTCCCGGTAATCCGTATTTGCG (site GATTATCCTTG)” the “recombinant UMI read abundance (log10)” value was 0.
For “TGCACACCATGGACCGGTTTTCCCGGTAATCCGTATTTGAC (site TGTACACCTGT)”, the “recombinant UMI read abundance (log10)” value was 0.
With “ATCCCGGCATGGACCGGTTTTCCCGGTAATCCGTATTTGGG (site ATCCCGGCTCC)” the “recombinant UMI read abundance (log10)” value was 0.00576.
With “AGACGGTCATGGACCGGTTTTCCCGGTAATCCGTATTTGGC (site AGACGGTCTGC)” the “recombinant UMI read abundance (log10)” value was 3.28.
For “CAATCATCATGGACCGGTTTTCCCGGTAATCCGTATTTGCT (site CGATCATCTAG)”, the “recombinant UMI read abundance (log10)” value was 0.258.
With “CTTGCCCCATGGACCGGTTTTCCCGGTAATCCGTATTTGTA (site CTTGCCCCTTA)” the “recombinant UMI read abundance (log10)” value was 0.366.
In the case of “GATCCACCATGGACCGGTTTTCCCGGTAATCCGTATTTGGT (site GATCCACCTAC)”, the “recombinant UMI read abundance (log10)” value is reported as 0.0102.
In the case of “CGAAGGGCATGGACCGGTTTTCCCGGTAATCCGTATTTGGT (site CGAAGGGCTAC)”, the “recombinant UMI read abundance (log10)” value is reported as 1.32.
For “CTATGCACATGGACCGGTTTTCCCGGTAATCCGTATTTGTA (site TTATGCACTTA)”, the “recombinant UMI read abundance (log10)” value was 0.013.
In the case of “CGACGACCATGGACCGGTTTTCCCGGTAATCCGTATTTGAA (site CGACGACCTTT)”, the “recombinant UMI read abundance (log10)” value is reported as 0.00772.
In the case of “ATGTAGGCATGGACCGGTTTTCCCGGTAATCCGTATTTGGC (site ATGTATGCTGC)”, the “recombinant UMI read abundance (log10)” value is reported as 0.657.
With “CCCTAGCCATGGACCGGTTTTCCCGGTAATCCGTATTTGCA (site CCCTAGCCTAG)” the “recombinant UMI read abundance (log10)” value was 0.
For “AGGTGGACATGGACCGGTTTTCCCGGTAATCCGTATTTGCA (site AGGTGGACTTG)”, the “recombinant UMI read abundance (log10)” value was 2.73.
For “CTAGTATCATGGACCGGTTTTCCCGGTAATCCGTATTTGAG (site CTAGTATCTAT)”, the “recombinant UMI read abundance (log10)” value was 2.35.
With “CTAGTATCATGGACCGGTTTTCCCGGTAATCCGTATTTGAG (site CTAGTATCTCT)” the “recombinant UMI read abundance (log10)” value was 2.61.
With “CAAAGTCCATGGACCGGTTTTCCCGGTAATCCGTATTTGTA (site TAAAGTCCTTA)” the “recombinant UMI read abundance (log10)” value was 0.742.
For “CGCTAGGCATGGACCGGTTTTCCCGGTAATCCGTATTTGGT (site GGCTAGGCTAC)”, the “recombinant UMI read abundance (log10)” value was 0.00627.
With “AGCAAGACATGGACCGGTTTTCCCGGTAATCCGTATTTGCT (site AGGAAGACTTG)” the “recombinant UMI read abundance (log10)” value was 0.
For “CGGCTGACATGGACCGGTTTTCCCGGTAATCCGTATTTGTT (site CGGCTGACTAA)”, the “recombinant UMI read abundance (log10)” value was 0.0767.
For “TGTACACCATGGACCGGTTTTCCCGGTAATCCGTATTTGGC (site TGTACACCTGC)”, the “recombinant UMI read abundance (log10)” value was 0.00484.
For “TAGCCTTCATGGACCGGTTTTCCCGGTAATCCGTATTTGAT (site TAGCCTTCTAT)”, the “recombinant UMI read abundance (log10)” value was 0.
With “CAGCTACCATGGACCGGTTTTCCCGGTAATCCGTATTTGCT (site CGGCTACCTAG)” the “recombinant UMI read abundance (log10)” value was 0.
With “CTCCCTCCATGGACCGGTTTTCCCGGTAATCCGTATTTGAG (site CTCCCTCCTCT)” the “recombinant UMI read abundance (log10)” value was 0.0401.
In the case of “CAAGATTCATGGACCGGTTTTCCCGGTAATCCGTATTTGGG (site CAAGATTCTCC)”, the “recombinant UMI read abundance (log10)” value is reported as 0.89.
In the case of “TTAACTGCATGGACCGGTTTTCCCGGTAATCCGTATTTGTG (site TTAACTGCTCA)”, the “recombinant UMI read abundance (log10)” value is reported as 0.697.
For “TCAGACACATGGACCGGTTTTCCCGGTAATCCGTATTTGCG (site TCAGAGACTCG)”, the “recombinant UMI read abundance (log10)” value was 0.0043.
For “TAGAAATCATGGACCGGTTTTCCCGGTAATCCGTATTTGCG (site TAGTAATCTCG)”, the “recombinant UMI read abundance (log10)” value was 2.33.
For “CAAGTCGCATGGACCGGTTTTCCCGGTAATCCGTATTTGGG (site CAAGTCACTCC)”, the “recombinant UMI read abundance (log10)” value was 0.0586.
In the case of “CGGACCTCATGGACCGGTTTTCCCGGTAATCCGTATTTGCT (site CGGACGTCTAG)”, the “recombinant UMI read abundance (log10)” value is reported as 0.00745.
For “GTGCTACCATGGACCGGTTTTCCCGGTAATCCGTATTTGCT (site GTGCTACCTAG)”, the “recombinant UMI read abundance (log10)” value was 0.0199.
For “TATTTGGCATGGACCGGTTTTCCCGGTAATCCGTATTTGTG (site TATTTGGCTGA)”, the “recombinant UMI read abundance (log10)” value was 0.
In the case of “CCCCACACATGGACCGGTTTTCCCGGTAATCCGTATTTGCA (site CCCCACACTTC)”, the “recombinant UMI read abundance (log10)” value is reported as 0.0185.
For “GTCTACACATGGACCGGTTTTCCCGGTAATCCGTATTTGCT (site CTCTACACTAG)”, the “recombinant UMI read abundance (log10)” value was 1.44.
With “ATCTTGGCATGGACCGGTTTTCCCGGTAATCCGTATTTGCT (site ATCTTGGCTAG)” the “recombinant UMI read abundance (log10)” value was 0.
With “GCCACTCCATGGACCGGTTTTCCCGGTAATCCGTATTTGTA (site GCCACCCCTTA)” the “recombinant UMI read abundance (log10)” value was 0.0122.
With “CTGCTACCATGGACCGGTTTTCCCGGTAATCCGTATTTGCT (site CTGCTACCTAG)” the “recombinant UMI read abundance (log10)” value was 0.
In the case of “CGGAAGCCATGGACCGGTTTTCCCGGTAATCCGTATTTGCA (site CGGAAGCCTTG)”, the “recombinant UMI read abundance (log10)” value is reported as 0.
In the case of “CGCCATACATGGACCGGTTTTCCCGGTAATCCGTATTTGCT (site CGCCGTACTAG)”, the “recombinant UMI read abundance (log10)” value is reported as 0.
In the case of “AGAGCATCATGGACCGGTTTTCCCGGTAATCCGTATTTGCT (site CGATCATCTAG)”, the “recombinant UMI read abundance (log10)” value is reported as 0.
In the case of “GTAAGTACATGGACCGGTTTTCCCGGTAATCCGTATTTGAC (site GTACGTACTGT)”, the “recombinant UMI read abundance (log10)” value is reported as 0.
In the case of “TATTTGGCATGGACCGGTTTTCCCGGTAATCCGTATTTGTG (site TATTTGGCTAA)”, the “recombinant UMI read abundance (log10)” value is reported as 0.0123.
With “ACGGTATCATGGACCGGTTTTCCCGGTAATCCGTATTTGCA (site ACAGTATCTTG)” the “recombinant UMI read abundance (log10)” value was 2.96.
For “GGTACACCATGGACCGGTTTTCCCGGTAATCCGTATTTGAC (site GGTACACCTGT)”, the “recombinant UMI read abundance (log10)” value was 0.
